Reference: patent US8569280B2, “Methods for the treatment of multiple myeloma” (Immune Disease Institute, priority 2005, dated 2013)

Tests used:
MM cells = test: transwell migration assay of MM cells toward SDF-1; assay type: cell-based
Procedure: AMD3100 was evaluated in amounts of 0-100 μM with all wells containing 20 nM SDF-1 in the lower chambers. […] 10 μM of anti-CXCR4MAB171 antibody inhibited migration to 53%, and 200 μM of MAB171 inhibited migration to 35% compared to a control (P=0.007).
The transwell migration assay was used to test the effect of the CXCR4 inhibitor AMD3100 on the migration of MM cells.
Similarly, the transwell migration assay was used to test the effect of the anti-CXCR 4 antibody MAB171 (10-800 μM) for 16 hours and its IgG2a isotype control on the in vitro migration of MM cells. […] Anti-CXCR4MAB171 inhibited 10 μM migration to 53%, and 200 μM migration to 35% compared with the control (P=0.007).

5T33mM cells [1] = details: recipient mice treated with inhibitor
Procedure: AMD3100 and PBS is implanted, and the survival rate after 2 hours, 24 hours and 6 days is measured.
5T33mM cells, obtained as described above, are injected into recipient mice.

5T33mM cells [2] = test: survival and serum IgG2b of mice injected with 5T33mM cells; assay type: in vivo, mouse; details: subcutaneous osmotic pump, 25 mg/mL, 0.5 μl/hr, 21 days, started at the time of cell injection; versus PBS
Procedure: FIG. 5 is a graph showing the survival of C57BL/6 mice after injection with 10×10^6 5T33^eGFP cells. Osmotic pumps are installed at the time of injection, and either AMD3100 or PBS is implanted. The osmotic pumps are changed every 7 days, and the pump administration is discontinued after 21 days.
AMD3100 is delivered via a subcutaneous osmotic pump at a concentration of 25 mg/mL and a delivery rate of 0.5 μl/hr. The osmotic devices delivered the drug for 21 days.

c1cc(CN2CCCNCCNCCCNCC2)ccc1CN1CCCNCCNCCCNCC1 [AMD3100]
inhibition at 10 µM (MM cells; 10 μM AMD3100, 16 hours, 20 nM SDF-1 in lower chambers, read-out: inhibition of migration of MM cells compared with control): 70% | dose dependence of inhibition of MM cell migration (MM cells; AMD3100 0-100 μM, MAB171 0-400 μg/mL or 10-800 μM, 16 hours): dose-dependent inhibition of migration | inhibition of migration at doses higher than 10 μM (MM cells; AMD3100 above 10 μM up to 100 μM, 16 hours): did not induce further inhibition of migration | homing of 5T33mM cells to bone marrow (5T33mM cells [1]; 2 hours): does not affect | retention of 5T33mM cells in bone marrow (5T33mM cells [1]; 24 hours): does not affect | proliferation/survival of 5T33mM cells in bone marrow (5T33mM cells [1]; 6 days): significantly reduces | survival of mice injected with 5T33 cells (5T33mM cells [2]): an increase in survival is observed
